From patent publication US8192962B2, “Processes for detecting toxic substances” (Daikin Industries, Ltd., priority 2001, dated 2012)

Tested on: Transport facilitation protein genes
Assay: DNA chip mRNA expression in yeast, transport facilitation protein genes (Table 5)
Assay type: cell-based, Saccharomyces cerevisiae S288C
How it was run: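 Value is the scanned fluorescence intensity ratio of exposed versus chemical-free cells. Log-phase S288C yeast in YPD at 25° C. received one toxic substance for two hours, dosed to slow growth without killing; Cy3/Cy5-labeled cDNA from oligo-dT-purified mRNA was hybridized to a whole-genome chip at 65° C.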

C=CC=O [(14), acrolein]
The level of expressed mRNA in the presence of chemical substance/The level of expressed mRNA in the absence of chemical substance (yeast gene YHL035C): 0.8 | The level of expressed mRNA in the presence of chemical substance/The level of expressed mRNA in the absence of chemical substance (yeast gene YHL040C): 1.1 | The level of expressed mRNA in the presence of chemical substance/The level of expressed mRNA in the absence of chemical substance (yeast gene YHL047C): 0.5 | The level of expressed mRNA in the presence of chemical substance/The level of expressed mRNA in the absence of chemical substance (yeast gene YHR026W): 1.3 | The level of expressed mRNA in the presence of chemical substance/The level of expressed mRNA in the absence of chemical substance (yeast gene YHR092C): 1.6 | The level of expressed mRNA in the presence of chemical substance/The level of expressed mRNA in the absence of chemical substance (yeast gene YHR094C): 0.6 | The level of expressed mRNA in the presence of chemical substance/The level of expressed mRNA in the absence of chemical substance (yeast gene YHR175W): 0.7 | The level of expressed mRNA in the presence of chemical substance/The level of expressed mRNA in the absence of chemical substance (yeast gene YIL006W): 1.0 | The level of expressed mRNA in the presence of chemical substance/The level of expressed mRNA in the absence of chemical substance (yeast gene YIL022W): 0.6 | The level of expressed mRNA in the presence of chemical substance/The level of expressed mRNA in the absence of chemical substance (yeast gene YIL056W): 1.0 | The level of expressed mRNA in the presence of chemical substance/The level of expressed mRNA in the absence of chemical substance (yeast gene YIL088C): 1.2 | The level of expressed mRNA in the presence of chemical substance/The level of expressed mRNA in the absence of chemical substance (yeast gene YJL034W): 0.6 | The level of expressed mRNA in the presence of chemical substance/The level of expressed mRNA in the absence of chemical substance (yeast gene YJL212C): 0.8 | The level of expressed mRNA in the presence of chemical substance/The level of expressed mRNA in the absence of chemical substance (yeast gene YJL219W): 1.1 | The level of expressed mRNA in the presence of chemical substance/The level of expressed mRNA in the absence of chemical substance (yeast gene YJR077C): 0.7 | The level of expressed mRNA in the presence of chemical substance/The level of expressed mRNA in the absence of chemical substance (yeast gene YJR106W): 0.9 | The level of expressed mRNA in the presence of chemical substance/The level of expressed mRNA in the absence of chemical substance (yeast gene YJR121W): 0.7 | The level of expressed mRNA in the presence of chemical substance/The level of expressed mRNA in the absence of chemical substance (yeast gene YKL016C): 1.6 | The level of expressed mRNA in the presence of chemical substance/The level of expressed mRNA in the absence of chemical substance (yeast gene YKL146W): 1.0 | The level of expressed mRNA in the presence of chemical substance/The level of expressed mRNA in the absence of chemical substance (yeast gene YKL221W): 1.4 | The level of expressed mRNA in the presence of chemical substance/The level of expressed mRNA in the absence of chemical substance (yeast gene YKR039W): 1.2 | The level of expressed mRNA in the presence of chemical substance/The level of expressed mRNA in the absence of chemical substance (yeast gene YKR067W): 1.3 | The level of expressed mRNA in the presence of chemical substance/The level of expressed mRNA in the absence of chemical substance (yeast gene YLL028W): 0.7 | The level of expressed mRNA in the presence of chemical substance/The level of expressed mRNA in the absence of chemical substance (yeast gene YLR081W): 1.0 | The level of expressed mRNA in the presence of chemical substance/The level of expressed mRNA in the absence of chemical substance (yeast gene YLR092W): 1.4 | The level of expressed mRNA in the presence of chemical substance/The level of expressed mRNA in the absence of chemical substance (yeast gene YLR295C): 1.2 | The level of expressed mRNA in the presence of chemical substance/The level of expressed mRNA in the absence of chemical substance (yeast gene YLR348C): 1.0 | The level of expressed mRNA in the presence of chemical substance/The level of expressed mRNA in the absence of chemical substance (yeast gene YLR378C): 0.4 | The level of expressed mRNA in the presence of chemical substance/The level of expressed mRNA in the absence of chemical substance (yeast gene YMR011W): 0.6 | The level of expressed mRNA in the presence of chemical substance/The level of expressed mRNA in the absence of chemical substance (yeast gene YMR162C): 1.0 | The level of expressed mRNA in the presence of chemical substance/The level of expressed mRNA in the absence of chemical substance (yeast gene YMR203W): 0.7 | The level of expressed mRNA in the presence of chemical substance/The level of expressed mRNA in the absence of chemical substance (yeast gene YNL055C): 0.9 | The level of expressed mRNA in the presence of chemical substance/The level of expressed mRNA in the absence of chemical substance (yeast gene YNL259C): 1.4 | The level of expressed mRNA in the presence of chemical substance/The level of expressed mRNA in the absence of chemical substance (yeast gene YNR072W): 1.0 | The level of expressed mRNA in the presence of chemical substance/The level of expressed mRNA in the absence of chemical substance (yeast gene YOL119C): 2.4 | The level of expressed mRNA in the presence of chemical substance/The level of expressed mRNA in the absence of chemical substance (yeast gene YOL156W): 0.9 | The level of expressed mRNA in the presence of chemical substance/The level of expressed mRNA in the absence of chemical substance (yeast gene YOL163W): 1.2 | The level of expressed mRNA in the presence of chemical substance/The level of expressed mRNA in the absence of chemical substance (yeast gene YOR035C): 0.9 | The level of expressed mRNA in the presence of chemical substance/The level of expressed mRNA in the absence of chemical substance (yeast gene YOR130C): 1.3 | The level of expressed mRNA in the presence of chemical substance/The level of expressed mRNA in the absence of chemical substance (yeast gene YOR153W): 0.3 | The level of expressed mRNA in the presence of chemical substance/The level of expressed mRNA in the absence of chemical substance (yeast gene YOR270C): 0.7 | The level of expressed mRNA in the presence of chemical substance/The level of expressed mRNA in the absence of chemical substance (yeast gene YOR273C): 0.5 | The level of expressed mRNA in the presence of chemical substance/The level of expressed mRNA in the absence of chemical substance (yeast gene YOR316C): 1.0 | The level of expressed mRNA in the presence of chemical substance/The level of expressed mRNA in the absence of chemical substance (yeast gene YOR328W): 0.8 | The level of expressed mRNA in the presence of chemical substance/The level of expressed mRNA in the absence of chemical substance (yeast gene YOR332W): 1.1 | The level of expressed mRNA in the presence of chemical substance/The level of expressed mRNA in the absence of chemical substance (yeast gene YOR348C): 1.2 | The level of expressed mRNA in the presence of chemical substance/The level of expressed mRNA in the absence of chemical substance (yeast gene YPL036W): 0.6 | The level of expressed mRNA in the presence of chemical substance/The level of expressed mRNA in the absence of chemical substance (yeast gene YPL134C): 1.4 | The level of expressed mRNA in the presence of chemical substance/The level of expressed mRNA in the absence of chemical substance (yeast gene YPL224C): 1.4 | The level of expressed mRNA in the presence of chemical substance/The level of expressed mRNA in the absence of chemical substance (yeast gene YPL265W): 1.1 | The level of expressed mRNA in the presence of chemical substance/The level of expressed mRNA in the absence of chemical substance (yeast gene YPL271W): 1.3 | The level of expressed mRNA in the presence of chemical substance/The level of expressed mRNA in the absence of chemical substance (yeast gene YPR124W): 0.4 | The level of expressed mRNA in the presence of chemical substance/The level of expressed mRNA in the absence of chemical substance (yeast gene YPR192W): 0.7 | The level of expressed mRNA in the presence of chemical substance/The level of expressed mRNA in the absence of chemical substance (yeast gene YPR194C): 1.0
